Reference: patent US7396943B2, “Opioid receptor antagonists” (Eli Lilly and Company, priority 2004, dated 2008)
Counter-ions that a name gives are not always drawn.

What was measured:
Assay type in all cases: biochemical
mu opioid receptor (MOR) = mu opioid receptor (MOR) (Homo sapiens, UniProt P35372); assay: GTP-γ-S binding assay (SPA), antagonist mode, mu; settings: antagonism of agonist DAMGO 1 micromolar; membranes; Kb by Cheng-Prusoff equation; read-out: In Vitro Antagonism GTP-γ-S Kb (nM) Mu
Chain of mu opioid receptor (MOR) (P35372 whole entry): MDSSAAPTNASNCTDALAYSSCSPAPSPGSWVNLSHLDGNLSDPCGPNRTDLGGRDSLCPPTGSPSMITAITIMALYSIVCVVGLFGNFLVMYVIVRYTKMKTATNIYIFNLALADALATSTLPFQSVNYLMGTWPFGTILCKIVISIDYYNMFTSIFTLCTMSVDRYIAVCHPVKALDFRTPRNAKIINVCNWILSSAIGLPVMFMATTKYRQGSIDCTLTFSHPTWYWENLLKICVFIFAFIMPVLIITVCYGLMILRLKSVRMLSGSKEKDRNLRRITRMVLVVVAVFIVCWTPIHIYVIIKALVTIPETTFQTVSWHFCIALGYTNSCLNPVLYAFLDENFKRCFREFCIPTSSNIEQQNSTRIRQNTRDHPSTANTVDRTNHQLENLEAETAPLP
Description: (§1) A scintillation proximity assay (SPA)-based GTP-γ-S^35 assay format was developed based on previous opioid (Emmerson et al., J. Pharm Exp Ther 278, 1121, 1996; Horng et al., Society for Neuroscience Abstracts, 434.6, 2000) and muscarinic (DeLapp et al., JPET 289, 946, 1999) assay formats. Membranes were resuspended in 20 mM HEPES, 100 mM NaCl, 5 mM MgCl2, 1 mM DTT, and 1 mM EDTA. […] of GTP-γ-[35S], compound, membrane suspension (20 microgram/well), and wheat germ agglutinin coated SPA beads (1 mg/well) were added to clear bottom 96 well assay plates. GDP ([…]) was added to the membrane solution prior to addition to the assay plates. Plates were sealed and incubated for four hours at room temperature then placed in a refrigerator overnight to allow the beads to settle. Signal stability at 4° C. was determined to be >60 hours. Plates were warmed to room temperature and counted in a Wallac Microbeta scintillation counter. For antagonist assays, specific agonists were added at the following concentrations: (MOR) DAMGO 1 micromolar, (DOR) DPDPE 30 nM, (KOR) US69593 300 nM. Kb's were determined by Cheng-Prusoff equation (see Cheng and Prusoff, Biochem. Pharmacol. 22, 3099 1973).

[1] = target: delta opioid receptor (DOR) (Homo sapiens, UniProt P41143); assay: GTP-γ-S binding assay (SPA), antagonist mode, delta; settings: antagonism of agonist DPDPE 30 nM; membranes; Kb by Cheng-Prusoff equation; read-out: In Vitro Antagonism GTP-γ-S Kb (nM) Delta
Chain of delta opioid receptor (DOR) (P41143 whole entry): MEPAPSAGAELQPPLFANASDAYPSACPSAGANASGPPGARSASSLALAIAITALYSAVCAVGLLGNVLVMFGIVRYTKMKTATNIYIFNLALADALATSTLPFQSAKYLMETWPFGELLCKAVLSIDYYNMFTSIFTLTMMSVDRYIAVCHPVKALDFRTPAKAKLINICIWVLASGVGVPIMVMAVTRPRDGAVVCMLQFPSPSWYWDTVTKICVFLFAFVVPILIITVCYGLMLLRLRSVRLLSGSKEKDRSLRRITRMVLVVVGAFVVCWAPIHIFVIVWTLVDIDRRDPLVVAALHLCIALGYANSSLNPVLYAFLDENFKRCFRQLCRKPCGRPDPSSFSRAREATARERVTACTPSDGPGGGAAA
Description: as §1

[2] = target: kappa opioid receptor (KOR) (Homo sapiens, UniProt P41145); assay: GTP-γ-S binding assay (SPA), antagonist mode, kappa; settings: antagonism of agonist US69593 300 nM; membranes; Kb by Cheng-Prusoff equation; read-out: In Vitro Antagonism GTP-γ-S Kb (nM) Kappa
Chain of kappa opioid receptor (KOR) (P41145 whole entry): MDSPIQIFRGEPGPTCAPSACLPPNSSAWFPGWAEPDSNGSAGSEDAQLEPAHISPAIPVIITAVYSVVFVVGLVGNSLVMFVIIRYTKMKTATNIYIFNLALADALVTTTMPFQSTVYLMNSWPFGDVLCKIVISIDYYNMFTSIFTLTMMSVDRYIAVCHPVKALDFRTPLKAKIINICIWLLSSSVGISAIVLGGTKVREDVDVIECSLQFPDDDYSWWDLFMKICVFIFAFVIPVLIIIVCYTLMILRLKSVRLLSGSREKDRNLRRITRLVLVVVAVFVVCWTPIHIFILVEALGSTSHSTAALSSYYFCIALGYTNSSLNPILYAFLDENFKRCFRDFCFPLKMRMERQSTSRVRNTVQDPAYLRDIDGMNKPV
Description: as §1

Compound	Kb (mu opioid receptor (MOR))	Kb [1]	Kb [2]
NC(=O)c1ccc(Oc2ccc(CNCCc3cccc(F)c3)s2)cc1 [Example 3, 4-(5-{[2-(3-Fluoro-phenyl)-ethylamino]-methyl}-thiophen-2-yloxy)-benzamide]	0.6 nM	1.6 nM	3.9 nM
NC(=O)c1ccc(Oc2ccc(CNCCc3ccccc3)s2)cc1 [Example 1, 4-[5-(Phenethylamino-methyl)-thiophen-2-yloxy]-benzamide]	0.6 nM	3.3 nM	4.6 nM
CC(C)CCNCc1ccc(Oc2ccc(C(N)=O)cc2)s1 [Example 2, 4-{5-[(3-Methyl-butylamino)-methyl]-thiophen-2-yloxy}-benzamide]	3.7 nM	19.4 nM	2.2 nM
NC(=O)c1ccc(Oc2ccc(CNCCC3CCCC3)s2)cc1 [Example 4, 4-{5-[(2-Cyclopentyl-ethylamino)-methyl]-thiophen-2-yloxy}-benzamide]	0.6 nM	2.7 nM	1 nM

The remaining lines, values ahead:

Kb (mu opioid receptor (MOR))	Kb [1]	Kb [2]	Compound
5.7 nM	13.7 nM	–	CC(C)(C)CCNCc1ccc(Oc2ccc(C(N)=O)cc2)s1 [Example 6, 4-{5-[(3,3-Dimethyl-butylamino)-methyl]-thiophen-2-yloxy}-benzamide]
0.3 nM	1.3 nM	4 nM	COc1cc(C(N)=O)ccc1Oc1ccc(CNCCc2ccccc2)s1 [Example 7, 3-Methoxy-4-[5-(phenethylamino-methyl)-thiophen-2-yloxy]-benzamide hydrochloride]
0.6 nM	2.4 nM	1.4 nM	NC(=O)c1ccc(Oc2ccc(CNCCc3cccs3)s2)cc1 [Example 5, 4-{5-[(2-Thiophen-2-yl-ethylamino)-methyl]-thiophen-2-yloxy}-benzamide]
4.7 nM	40.5 nM	3.2 nM	COc1cc(C(N)=O)ccc1Oc1ccc(CNCCC(C)C)s1 [Example 8, 3-Methoxy-4-{5-[(3-methyl-butylamino)-methyl]-thiophen-2-yloxy}-benzamide hydrochloride]
